Results taken from PMC10643210, “Expanding structural diversity of 5′-aminouridine moiety of sansanmycin via mutational biosynthesis” (Frontiers in Bioengineering and Biotechnology, 2023).
≈ marks a conversion by molar mass, not a printed value. Read-outs that look alike come from different tables or passages of the source.

What was measured:
MraY A. aeolicus = details: Figure 1F, ref Mashalidis et al., 2019, cited from earlier work
From the text: (§1) FIGURE 1 Chemical structures of natural UPAs (black) and synthetic analogues with modified 5′-aminouridine moiety (blue) and their corresponding inhibitory activity. (A) The pseudo-tetrapeptide backbone of UPAs. (B) The chemical structures of 5′-aminouridine of natural UPAs. (C–E) The chemical structures of modified 5′-aminouridine of synthetic analogues. (F) Detailed information on structure and inhibitory activities of natural UPAs and synthesized derivatives. Pae, Pseudomonas aeruginosa; Mtb, Mycobacterium tuberculosis; B. subtilis, Bacillus subtilis; S. aureus, Staphylococcus aureus; A. ae ...

Pae PAO1 = details: Figure 1F; ref Okamoto et al., 2012; cited from earlier work
M. tuberculosis S17 [1] = assay: microbe, parasite or virus in culture; details: Mycobacterium tuberculosis, S17, read-out: MIC M. tuberculosis S17
M. tuberculosis H37Rv [2] = assay: microbe, parasite or virus in culture; details: Mycobacterium tuberculosis, read-out: MIC M. tuberculosis H37Rv
Mtb H37Rv [3] = details: Figure 1F, natural sansanmycins; reference not given; cited from earlier work
M. tuberculosis S17 [4] = details: clinical isolate susceptible to isoniazid and rifampicin; Alamar blue, 7H9 broth, triplicate wells
E. coli ΔtolC = details: microdilution in Mueller-Hinton broth, 10 h at 37°C, visual read-out, triplicate
P. aeruginosa 11 [5] = details: microdilution in Mueller-Hinton broth, 10 h at 37°C, visual read-out, triplicate
[6] = Stability in KH2PO4 buffer, HPLC; assay type: physicochemical; details: chemical stability, 0.05 M KH2PO4 buffer pH 6.0, room temperature (method: 28 °C), HPLC peak area, three parallel repeats
Description: Poor stability is one of the factors hindering the development of sansanmycin analogues into drug candidates. Thus, we conducted stability experiments followed the method reported previously ([Shi et al., 2016]) on the two active sansanmycin analogues, SS-KK-2 and SS-KK-3 (Figure 5). These experiments were carried out at room temperature with the parent compound SS-A as a control.
FIGURE 5 Stability of SS-A, SS-KK-2 and SS-KK-3. (A–C) HPLC analysis of SS-A, SS-KK-2 and SS-KK-3 at indicated days in KH2PO4 buffer (pH 6.0) at room temperature. (D) The changes of the level of SS-A, SS-KK-2 and SS-KK-3 over time. All samples were analyzed by HPLC and quantified according to the areas of peaks. Each sample underwent three parallel repeats. SS-A, black line; SS-KK-2, orange line; SS-KK-3, green line.
The stability assessment of sansanmycin A and its analogues was conducted using a previously reported method ([Shi et al., 2016]). Sansanmycins were dissolved in 0.05 M KH2PO4 buffer (with pH adjusted to 6.0 using NaOH) and incubated at 28 °C for 9 days with testing conducted every 3 days. Each sample underwent three parallel repeats. All samples were analyzed by HPLC and quantified by peak area analysis.

M. tuberculosis H37Rv [7] = system: M. tuberculosis H37Rv
M. Phlei [8] = details: microdilution in Mueller-Hinton broth, 10 h at 37°C, visual read-out, triplicate
P. aeruginosa 11 [9] = assay: microbe, parasite or virus in culture; details: Pseudomonas aeruginosa, 11, 10 h, read-out: MIC P. aeruginosa 11
M. Phlei [10] = assay: microbe, parasite or virus in culture; details: Mycolicibacterium phlei, 10 h, read-out: MIC M. Phlei
Pae PAM1020 = details: Figure 1F; ref Boojamra et al., 2001; cited from earlier work
Mtb H37Rv [11] = details: Figure 1F, ref Tran et al., 2017, cited from earlier work
MraY B. subtilis = details: Figure 1F; ref Inukai et al., 1993; cited from earlier work
From the text: as §1

3′-hydroxymureidomycin A
IC50 (MraY A. aeolicus; value in brackets): 52 nM | IC50 (MraY A. aeolicus) (MraY A. aeolicus): 0.045 µg/mL

3′-hydroxypacidamycin D
MIC (Pae PAO1) (Pae PAO1): 32 µg/mL

NNC(=O)c1ccncc1 [INH, isoniazid]
MIC (M. tuberculosis S17 [1]): 0.03 µg/mL (≈ 0.219 µM) | MIC (M. tuberculosis H37Rv [2]): 0.03 µg/mL (≈ 0.219 µM)

CC(=O)NC[C@H]1CN(c2ccc(N3CCOCC3)c(F)c2)C(=O)O1 [LZD, linezolid]
MIC (M. tuberculosis S17 [1]): 0.25 µg/mL (≈ 0.741 µM) | MIC (M. tuberculosis H37Rv [2]): 0.25 µg/mL (≈ 0.741 µM)

CO[C@H]1/C=C/O[C@@]2(C)Oc3c(C)c(O)c4c(O)c(c(/C=N/N5CCN(C)CC5)c(O)c4c3C2=O)NC(=O)/C(C)=C\C=C\[C@H](C)[C@H](O)[C@@H](C)[C@@H](O)[C@@H](C)[C@H](OC(C)=O)[C@@H]1C [RIF, rifampicin]
MIC (M. tuberculosis S17 [1]): 0.25 µg/mL (≈ 0.304 µM) | MIC (M. tuberculosis H37Rv [2]): 0.125 µg/mL (≈ 0.152 µM)

CSCC[C@H](NC(=O)N[C@@H](Cc1c[nH]c2ccccc12)C(=O)O)C(=O)N[C@H](C(=O)N/C=C1/C[C@@H](O)[C@H](n2ccc(=O)[nH]c2=O)O1)[C@H](C)N(C)C(=O)[C@@H](N)Cc1cccc(O)c1 [SS-A, sansanmycin A]
MIC (Mtb H37Rv) (Mtb H37Rv [3]): 16 µg/mL (≈ 18.5 µM) | MIC M. tuberculosis S17 (M. tuberculosis S17 [4]): 16 µg/mL (≈ 18.5 µM) | MIC E. coli ΔtolC (E. coli ΔtolC): 4 µg/mL (≈ 4.63 µM) | MIC P. aeruginosa 11 (P. aeruginosa 11 [5]): 16 µg/mL (≈ 18.5 µM) | residual quantities after 9 days of incubation [6]: below 70% | MIC M. tuberculosis H37Rv (M. tuberculosis H37Rv [7]): 16 µg/mL (≈ 18.5 µM) | MIC M. Phlei (M. Phlei [8]): 64 µg/mL (≈ 74.1 µM)

CSCC[C@H](NC(=O)N[C@@H](Cc1c[nH]c2ccccc12)C(=O)O)C(=O)N[C@H](C(=O)NC[C@H]1O[C@@H](n2ccc(=O)[nH]c2=O)C[C@@H]1O)[C@H](C)N(C)C(=O)[C@@H](N)Cc1cccc(O)c1 [SS-KK-1]
MIC M. tuberculosis S17 (M. tuberculosis S17 [4]): >64 µg/mL | MIC E. coli ΔtolC (E. coli ΔtolC): >32 µg/mL | MIC P. aeruginosa 11 (P. aeruginosa 11 [5]): >32 µg/mL | MIC M. tuberculosis H37Rv (M. tuberculosis H37Rv [7]): >64 µg/mL | MIC M. Phlei (M. Phlei [8]): >32 µg/mL

CSCC[C@H](NC(=O)N[C@@H](Cc1c[nH]c2ccccc12)C(=O)O)C(=O)N[C@H](C(=O)NC[C@H]1O[C@@H](n2ccc(=O)[nH]c2=O)C[C@@H]1O)[C@H](C)N(C)C(=O)[C@@H](N)Cc1ccc(O)cc1 [SS-KK-2]
MIC M. tuberculosis S17 (M. tuberculosis S17 [4]): 32 µg/mL (≈ 37 µM) | MIC E. coli ΔtolC (E. coli ΔtolC): 1 µg/mL (≈ 1.15 µM) | MIC P. aeruginosa 11 (P. aeruginosa 11 [5]): >32 µg/mL | stability compared with SS-A ([6]; 9 days, tested every 3 days): slightly higher level of stability than SS-A | MIC M. tuberculosis H37Rv (M. tuberculosis H37Rv [7]): 32 µg/mL (≈ 37 µM) | MIC M. Phlei (M. Phlei [8]): >32 µg/mL

[H]/N=C(/N)N[C@H]1[C@H](O)[C@@H](O)[C@H](O[C@@H]2O[C@@H](C)[C@](O)(C=O)[C@H]2O[C@@H]2O[C@@H](CO)[C@H](O)[C@@H](O)[C@@H]2NC)[C@@H](N/C(N)=N\[H])[C@@H]1O [streptomycin]
MIC E. coli ΔtolC (E. coli ΔtolC): 2 µg/mL (≈ 3.44 µM) | MIC (P. aeruginosa 11 [9]): 8 µg/mL (≈ 13.8 µM) | MIC (M. Phlei [10]): 16 µg/mL (≈ 27.5 µM)

Dihydropacidamycin D
MIC (Pae PAM1020) (Pae PAM1020): 64 µg/mL

Dihydrosansanmycin A
MIC50 (Mtb H37Rv) (Mtb H37Rv [11]; value in brackets): 0.50 ± 0.05 µM | MIC50 (Mtb H37Rv) (Mtb H37Rv [11]): 0.43 µg/mL

Dihydrosansanmycin B
MIC50 (Mtb H37Rv) (Mtb H37Rv [11]; value in brackets): 0.30 ± 0.07 µM | MIC50 (Mtb H37Rv) (Mtb H37Rv [11]): 0.25 µg/mL

Dihydrosansanmycin C
MIC50 (Mtb H37Rv) (Mtb H37Rv [11]; value in brackets): 18.5 ± 0.70 µM | MIC50 (Mtb H37Rv) (Mtb H37Rv [11]): 16 µg/mL

Mureidomycin A
IC50 (MraY B. subtilis) (MraY B. subtilis): 0.05 µg/mL

Pacidamycin D
MIC (Pae PAM1020) (Pae PAM1020): 64 µg/mL | MIC (Pae PAO1) (Pae PAO1): 64 µg/mL

Sansanmycin B
MIC (Mtb H37Rv) (Mtb H37Rv [3]): 8 µg/mL

Sansanmycin C
MIC (Mtb H37Rv) (Mtb H37Rv [3]): > 32 µg/mL
